≈ marks a conversion by molar mass, not a printed value. Where two headings read alike, the source gives them in different places.
Assays:
Assay type in all cases: cell-based
Staphylococcus aureus = experiment: Broth microdilution MIC, 50 clinical isolates (28 MRSA)
Experimental: (§1) Minimal inhibitory concentration (MIC) values were determined by broth microdilution or agar dilution in accordance with guidelines from the Clinical and Laboratory Standards Institute (CLSI; (1) “Methods for Dilution Antimicrobial Susceptibility Tests for Bacteria That Grow Aerobically; Approved Standard; 11th ed.” CLSI standard M07-A11, 2018; (2) “Performance Standards for Antimicrobial Susceptibility Testing; Twenty-Eighth Informational Supplement,” CLSI document M100-S28, 2018; and (3) “Methods for Antimicrobial Susceptibility Testing of Anaerobic Bacteria; Approved Standard—Eighth Edition,” CLSI document M11-A8, 2012).
(§2) Tested aerobically by broth microdilution: • Escherichia coli, n=50 • Klebsiella spp., n=50 • Pseudomonas aeruginosa, n=50 • Streptococcus spp., n=50 • Staphylococcus aureus, n=50 • Enterococcus faecalis, n=50 • Enterobacter aerogenes, n=50 • Proteus mirabilis, n=50
(§3) Broth microdilution testing of aerobic bacteria was conducted in cation-adjusted Mueller Hinton broth (MHBII). For testing streptococci, lysed horse blood (LHB) was added to MHBII broth at a final concentration of 3%. Where LHB was used, it was added after filtering.
(§4) Broth microdilution susceptibility testing in 96-well microplates was conducted in accordance with CLSI methods (1) and (2). Automated liquid handlers were used to conduct serial dilutions and liquid transfers, including the Multidrop 384 (Labsystems, Helsinki, Finland), Biomek 2000, and the Biomek FX (Beckman Coulter, Fullerton, Calif.). All wells in columns 2 through 12 of a standard 96-well microdilution plate (Costar 3795) were filled with 150 μL of the appropriate diluent. Then, 300 μL of the test agents were added to the wells of column 1 of the plates at 100× the highest final concentration to be tested. Serial two-fold dilutions were made across the rows through column 11 using the Biomek 2000. The wells of column 12 contained no drug and served as the growth control wells. This plate served as the “mother plate” from which MIC assay plates or “daughter plates” were made.
(§5) The daughter plates were loaded with 190 μL per well of the appropriate medium using the Multidrop 384. The daughter plates were created using the Biomek FX which transferred 2 μL of drug solution from each well of a mother plate to each corresponding well of the daughter plate in a single step. A standardized inoculum of each test organism was prepared per CLSI methods (1) to equal a 0.5 McFarland standard, followed by a dilution of 1:20 for aerobes and 1:10 for anaerobes. The plates were then inoculated with 10 μL of the diluted inoculum using the Biomek 2000 from low to high drug concentration, resulting in a final concentration of approximately 5×10^5 CFU/mL per well. An un-inoculated plate was incubated in parallel for each medium for the purpose of assessing solubility of the drug in the test media.
(§6) Inoculated plates were stacked 3 or 4 high, covered with a sterile lid on the top plate, placed into boxes with CO2 planchets (streptococci) or plastic bags (all other isolates). Plates were incubated at 35° C. for 16-24 hr in ambient air for aerobes or for 42-48 hr in the anaerobic environment of the Bactron II anaerobe chamber (Sheldon Manufacturing Co.; Cornelius, Oreg.). Following incubation, the microplates were removed from the incubator and viewed from the bottom using a plate viewer. The MIC values were read and recorded as the lowest concentration of drug that inhibited visible growth of the organism as per CLSI methods (1) and (2).

Enterococcus faecalis = experiment: Broth microdilution MIC, 50 clinical isolates
Experimental: as §1, §2, §3, §4, §5, §6

Streptococcus spp. = experiment: Broth microdilution MIC, 54 clinical isolates; conditions: for Mode: modal MIC
Experimental: as §1, §2, §3, §4, §5, §6

[1] = test system: Staphylococcus aureus clinical isolates; experiment: MIC distribution against clinical isolates; conditions: 50 S. aureus isolates
Text: (§7) As used herein, “minimum inhibitory concentration” or “MIC” refers to the lowest concentration of an antimicrobial agent, for example, an antimicrobial agent as described herein, required to inhibit the growth of an organism.
(§8) Many susceptibility testing methods are known in the art and can be used as described herein (see, e.g., Jorgensen and Ferraro (2009) Clinical Infectious Diseases 49:1749-1755; and Maurer et al. (2017) Infectious Disease Reports 9:6839; the entire contents of each of the foregoing are incorporated herein by reference). For example, antimicrobial susceptibility can be determined using conventional culture based methods such as the broth or agar dilution test. In these dilution tests, the bacterial isolate of interest is inoculated onto different media that include serial dilutions of an antimicrobial agent, and incubated under appropriate conditions (e.g., overnight at 37° C.) to allow for growth to occur. Following the incubation period, the media is examined to determine bacterial growth. The lowest concentration of antibiotic that prevents growth represents the minimal inhibitory concentration (MIC). Broth dilution tests can be miniaturized and mechanized allowing for reproducibility and high throughput.

[2] = test system: Enterococcus faecalis clinical isolates; experiment: MIC distribution against clinical isolates; conditions: 50 E. faecalis isolates
Text: as §7, §8

[3] = test system: Viridans group Streptococci clinical isolates; experiment: MIC distribution against clinical isolates; conditions: 15 Viridans group Streptococci isolates
Text: (§9) As used herein, “minimum inhibitory concentration” or “MIC” refers to the lowest concentration of an antimicrobial agent, for example, an antimicrobial agent as described herein, required to inhibit the growth of an organism. […] “MIC90” represents the MIC value at which ≥90% of the strains within a test population are inhibited; the 90th percentile.
as §8

[4] = test system: Streptococcus pyogenes clinical isolates; experiment: MIC distribution against clinical isolates
Text: as §9, §8

[5] = 54 Streptococcus spp. clinical isolates
[6] = 54 Streptococcus spp. clinical isolates, MXF by FDA breakpoints
[7] = MIC 0.015 μg/mL, 19 S. pyogenes isolates
[8] = MIC 0.03 μg/mL, 19 S. pyogenes isolates
[9] = MIC 0.06 μg/mL, 19 S. pyogenes isolates
[10] = MIC 0.008 μg/mL, 19 S. pyogenes isolates
[11] = MIC ≤0.004 μg/mL, 19 S. pyogenes isolates

CO/N=C(\C(=O)N[C@@H]1C(=O)N2C(C(=O)O)=C(CSc3nc(=O)c(=O)[nH]n3C)CS[C@H]12)c1csc(N)n1 [ceftriaxone]
Mode (Staphylococcus aureus): >64 µg/mL | MIC50 (Staphylococcus aureus; Staphylococcus aureus, read-out: MIC50): 32 µg/mL (≈ 57.7 µM) | MIC90 (Staphylococcus aureus; Staphylococcus aureus, read-out: MIC90): > 64 µg/mL | MIC90 (Staphylococcus aureus; listed as CTR): >64 µg/mL | Mode (Enterococcus faecalis): >64 µg/mL | MIC50 (Enterococcus faecalis; Enterococcus faecalis, read-out: MIC50): > 64 µg/mL | MIC90 (Enterococcus faecalis; Enterococcus faecalis, read-out: MIC90): > 64 µg/mL | MIC50 (Enterococcus faecalis; listed as CTR): >64 µg/mL | MIC90 (Enterococcus faecalis; listed as CTR): >64 µg/mL | isolates susceptible (Streptococcus spp.): 100% | MIC50 (Streptococcus spp.; [5]): 0.03 µg/mL (≈ 0.0541 µM) | MIC90 (Streptococcus spp.; [5]): 0.12 µg/mL (≈ 0.216 µM) | MIC range (Streptococcus spp.; [5]): 0.008 to 1 µg/mL | % S (Streptococcus spp.; [6]): 100% | MIC50 (Streptococcus spp.; Streptococcus, read-out: MIC50): 0.03 µg/mL (≈ 0.0541 µM) | MIC90 (Streptococcus spp.; Streptococcus, read-out: MIC90): 0.12 µg/mL (≈ 0.216 µM) | Mode (Streptococcus spp.; [5]): 0.06 µg/mL | Number of test isolates at MIC ([1]; MIC 0.008 μg/mL): 0 | Cumulative percentage of isolates inhibited at MIC ([1]; MIC 2 μg/mL): 6.0% | Number of test isolates at MIC ([1]; MIC 2 μg/mL): 3 | Cumulative percentage of isolates inhibited at MIC ([1]; MIC 4 μg/mL): 38.0% | Number of test isolates at MIC ([1]; MIC 4 μg/mL): 16 | Cumulative percentage of isolates inhibited at MIC ([1]; MIC 8 μg/mL): 44.0% | Number of test isolates at MIC ([1]; MIC 8 μg/mL): 3 | Cumulative percentage of isolates inhibited at MIC ([1]; MIC 32 μg/mL): 52.0% | Number of test isolates at MIC ([1]; MIC 32 μg/mL): 4 | Cumulative percentage of isolates inhibited at MIC ([1]; MIC 64 μg/mL): 56.0% | Number of test isolates at MIC ([1]; MIC 64 μg/mL): 2 | Number of test isolates at MIC ([1]; MIC >16 μg/mL): 2 | Cumulative percentage of isolates inhibited at MIC ([1]; MIC >64 μg/mL): 100.0% | Number of test isolates at MIC ([1]; MIC >64 μg/mL): 22 | Cumulative percentage of isolates inhibited at MIC ([2]; MIC 1 μg/mL): 2.0% | Number of test isolates at MIC ([2]; MIC 1 μg/mL): 1 | Cumulative percentage of isolates inhibited at MIC ([2]; MIC 16 μg/mL): 4.0% | Number of test isolates at MIC ([2]; MIC 16 μg/mL): 1 | Cumulative percentage of isolates inhibited at MIC ([2]; MIC 64 μg/mL): 10.0% | Number of test isolates at MIC ([2]; MIC 64 μg/mL): 3 | Cumulative percentage of isolates inhibited at MIC ([2]; MIC >64 μg/mL): 100.0% | Number of test isolates at MIC ([2]; MIC >64 μg/mL): 45 | Cumulative percentage of isolates inhibited at MIC ([3]; MIC 0.008 μg/mL): 6.7% | Number of test isolates at MIC ([3]; MIC 0.008 μg/mL): 1 | Cumulative percentage of isolates inhibited at MIC ([3]; MIC 0.015 μg/mL): 20.0% | Number of test isolates at MIC ([3]; MIC 0.015 μg/mL): 2 | Cumulative percentage of isolates inhibited at MIC ([3]; MIC 0.03 μg/mL): 33.3% | Number of test isolates at MIC ([3]; MIC 0.03 μg/mL): 2 | Cumulative percentage of isolates inhibited at MIC ([3]; MIC 0.06 μg/mL): 66.7% | Number of test isolates at MIC ([3]; MIC 0.06 μg/mL): 5 | Cumulative percentage of isolates inhibited at MIC ([3]; MIC 0.5 μg/mL): 93.3% | Number of test isolates at MIC ([3]; MIC 0.5 μg/mL): 1 | Cumulative percentage of isolates inhibited at MIC ([3]; MIC 1 μg/mL): 100.0% | Number of test isolates at MIC ([3]; MIC 1 μg/mL): 1 | Cumulative percentage of isolates inhibited at MIC [4, 7]: 84.2% | Number of test isolates at MIC [4, 7]: 16 | Cumulative percentage of isolates inhibited at MIC [4, 8]: 94.7% | Number of test isolates at MIC [4, 8]: 2 | Cumulative percentage of isolates inhibited at MIC [4, 9]: 100.0% | Number of test isolates at MIC [4, 9]: 1

Penicillin
MIC50 (Streptococcus spp.; [5]): 0.03 µg/mL | MIC90 (Streptococcus spp.; [5]): 0.25 µg/mL | MIC range (Streptococcus spp.; [5]): ≤0.004-1^ μg/mL | % I (Streptococcus spp.; [6]): 11% ^ | % S (Streptococcus spp.; [6]): 89% | Mode (Streptococcus spp.; [5]): 0.03 µg/mL | Cumulative percentage of isolates inhibited at MIC ([3]; MIC 0.008 μg/mL): 6.7% | Number of test isolates at MIC ([3]; MIC 0.008 μg/mL): 1 | Cumulative percentage of isolates inhibited at MIC ([3]; MIC 1 μg/mL): 100.0% | Cumulative percentage of isolates inhibited at MIC [4]: 100.0% | Number of test isolates at MIC [4]: 1 | Cumulative percentage of isolates inhibited at MIC [4, 10]: 94.7% | Number of test isolates at MIC [4, 10]: 8 | Cumulative percentage of isolates inhibited at MIC [4, 11]: 52.6% | Number of test isolates at MIC [4, 11]: 10
